One series has as its system sacroiliac joint. The experiment in a line: Effect of oral raloxifene on bone healing after sacroiliac joint fusion with BMP-2. Format: in vivo, human. An excerpt: The patients involved in the study were female at age of over 60 years old.
A further series deals with osteoblastic cells. The conditions noted are these: cited from earlier work.
For a further series, the system named is bone. To be noted: postmenopausal women, compared with estrogen; cited from earlier work.
In another series the test system is endogenous BMP-2. The conditions noted are these: primarily on the α-estrogen receptor; cited from earlier work.
For series [1] the following is noted: cited from earlier work.
In another series the test system is fracture healing. To be noted: primates; cited from earlier work.
For another series, the system named is tendon to bone healing. To be noted: rat model; cited from earlier work.
Setting [2] is: raloxifene therapy for osteoporosis.

Entries after “also recorded” stand apart in the source; their conditions may differ.

`O=C(c1ccc(OCCN2CCCCC2)cc1)c1c(-c2ccc(O)cc2)sc2cc(O)ccc12` [raloxifene]: the “bone healing or bone graft incorporation versus raloxifene immediately following surgery” value with sacroiliac joint (delayed raloxifene administration) is listed as “not as complete”. In addition, the “recovery versus control patients with BMP-2 only” value in the series with sacroiliac joint (delayed raloxifene administration, some patients) is listed as “superior recovery results”. In addition, the “bone healing / maturity of bone” value with sacroiliac joint (females over 60, raloxifene 60 mg/day orally for three months after surgery, BMP-2 at surgery in all patients) is given as “Significant improvement”. The “bone graft incorporation into host bone (images)” value in the series on sacroiliac joint (females over 60, three months after surgery, BMP-2 at surgery in all patients, FIGS. 5-7) was “improved incorporation; also recorded: fully healed and incorporated”. The “fusion result compared with patient who received BMP-2 without raloxifene” value in the series with sacroiliac joint (postmenopausal women, local BMP-2 and oral raloxifene, three months) is recorded as “better than normal healing”. The “effect on TNF-α induced apoptosis” value with osteoblastic cells is “anti-apoptotic effect”. In the series on bone, the “activation frequency, bone formation rate or bone volume” value was “did not decrease”. For the same molecule, in the series on endogenous BMP-2, the “effect on endogenous BMP-2 (potentiation / secretion)” value is “similar”. Also, in series [1] (setting [2]), the “stimulation of the uterus or breasts” value is “does not stimulate” and the tolerability result was “well tolerated”. Besides, the “occurrence of uterine bleeding, thrombophlebitis, breast abnormalities, or increased endometrial thickness” value in series [1] (raloxifene treated groups versus control) is given as “no differences among groups”.
Regarding estrogen, the “effect on endogenous BMP-2 (potentiation / secretion)” value in the series with endogenous BMP-2 is given as “direct measurable effect”.
“FGF-2: fibroblast growth factor-2, likely potent bone anabolic agent”: the fracture healing entry with fracture healing was “accelerates fracture healing and prevents nonunion”.

B1: rhPTH: Recombinant Human Parathyroid Hormone (protein, UniProt P01270 32-115, looked up)
Parathyroid hormone: SVSEIQLMHNLGKHLNSMERVEWLRKKLQDVHNFVALGAPLAPRDAGSQRPRKKEDNVLVESHEKSLGEADKADVNVLTKAKSQ
modifications: Parathyroid hormone
Take B1: in the series on tendon to bone healing, the “tendon repair and tendon qualities” value is reported as “improved”.

The values are drawn from US8933028B2, “Use of selective estrogen receptor modulator for joint fusion and other repair or healing of connective tissue” (priority 2010, dated 2015).
